Experimental data: ChEMBL document CHEMBL2163297, “Discovery of novel PI3-kinase δ specific inhibitors for the treatment of rheumatoid arthritis: taming CYP3A4 time-dependent inhibition” (J Med Chem, 2012)

Tests used:
[1] = Selectivity ratio of IC50 for PI3Kgamma to IC50 for PI3Kdelta
Cytochrome P450 3A4 [2] = target: T1, Cytochrome P450 3A4 (Homo sapiens, UniProt P08684); test: (§1) Time dependent inhibition of CYP3A4 in human liver microsomes preincubated for 30 mins; format: ADME, Microsome
[3] = Selectivity ratio of IC50 for PI3Kbeta to IC50 for PI3Kdelta
[4] = Selectivity ratio of IC50 for PI3Kalpha to IC50 for PI3Kdelta
[5] = target: T2, Phosphatidylinositol 4,5-bisphosphate 3-kinase catalytic subunit delta isoform (Homo sapiens, UniProt O00329)
T2 sequence (O00329 whole entry): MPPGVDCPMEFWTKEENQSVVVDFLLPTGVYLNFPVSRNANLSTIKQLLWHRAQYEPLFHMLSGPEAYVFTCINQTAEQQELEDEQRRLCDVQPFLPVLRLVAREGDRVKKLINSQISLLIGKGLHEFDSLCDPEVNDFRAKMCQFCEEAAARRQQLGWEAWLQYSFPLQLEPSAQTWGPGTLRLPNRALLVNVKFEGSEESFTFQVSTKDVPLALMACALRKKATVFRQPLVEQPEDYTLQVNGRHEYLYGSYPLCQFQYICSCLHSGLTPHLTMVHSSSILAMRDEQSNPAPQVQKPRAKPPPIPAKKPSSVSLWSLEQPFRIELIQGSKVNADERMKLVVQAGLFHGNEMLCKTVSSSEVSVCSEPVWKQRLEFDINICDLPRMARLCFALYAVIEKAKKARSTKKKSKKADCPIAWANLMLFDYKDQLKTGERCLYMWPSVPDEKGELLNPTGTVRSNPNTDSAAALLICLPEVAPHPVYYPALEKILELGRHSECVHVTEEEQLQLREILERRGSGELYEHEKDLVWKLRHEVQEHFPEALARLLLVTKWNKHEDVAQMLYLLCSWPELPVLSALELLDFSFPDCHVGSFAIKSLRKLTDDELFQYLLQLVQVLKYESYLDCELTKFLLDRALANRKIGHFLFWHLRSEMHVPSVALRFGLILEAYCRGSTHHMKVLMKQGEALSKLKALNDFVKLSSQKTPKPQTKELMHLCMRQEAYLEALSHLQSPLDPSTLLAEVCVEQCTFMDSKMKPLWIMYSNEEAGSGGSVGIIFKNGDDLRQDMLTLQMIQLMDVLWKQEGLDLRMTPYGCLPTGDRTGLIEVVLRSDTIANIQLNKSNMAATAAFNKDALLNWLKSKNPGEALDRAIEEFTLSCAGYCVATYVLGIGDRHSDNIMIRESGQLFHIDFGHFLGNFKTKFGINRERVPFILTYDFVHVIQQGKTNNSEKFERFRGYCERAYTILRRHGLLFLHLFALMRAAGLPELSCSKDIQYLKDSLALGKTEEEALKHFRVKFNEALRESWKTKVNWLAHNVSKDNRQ
Description: Binding affinity to PI3Kdelta after 30 mins by competitive fluorescence polarization assay

[6] = target: T3, Phosphatidylinositol 4,5-bisphosphate 3-kinase catalytic subunit delta isoform (Homo sapiens) (UniProt O00329); test: Ratio of IC50 for human PI3Kdelta-mediated AKT phosphorylation at S473 in Ri-1 cells to IC50 for PI3Kdelta; format: cell-based
T3 sequence (whole entry): T2 sequence (O00329 whole entry)

[7] = target: T2, Phosphatidylinositol 4,5-bisphosphate 3-kinase catalytic subunit delta isoform; test: Inhibition of human PI3Kdelta-mediated AKT phosphorylation at S473 in Ri-1 cells after 30 mins by electrochemiluminescence assay in presence of human serum albumin and alpha1 acid glycoprotein; format: cell-based
Liver microsomes [8] = test: Metabolic stability in rat liver microsomes; format: ADME, Microsome
Liver microsomes [9] = test: Metabolic stability in human liver microsomes; format: ADME, Microsome
[10] = Volume of distribution at steady state in […] Wistar rat at 0.5 mg/kg, iv and 2 mg/kg, po; format: ADME, organism-based; conditions: in vivo, read-out: Vdss
[11] = Clearance in […] Wistar rat at 0.5 mg/kg, iv and 2 mg/kg, po; format: ADME, organism-based; conditions: in vivo
[12] = Oral bioavailability in […] Wistar rat at 2 mg/kg; format: ADME, organism-based; conditions: in vivo
CYP3A4 = CYP3A4 (Homo sapiens, UniProt P08684); test: as §1; format: ADME, Microsome; conditions: human, liver microsomes
Sequence of CYP3A4 (P08684 whole entry): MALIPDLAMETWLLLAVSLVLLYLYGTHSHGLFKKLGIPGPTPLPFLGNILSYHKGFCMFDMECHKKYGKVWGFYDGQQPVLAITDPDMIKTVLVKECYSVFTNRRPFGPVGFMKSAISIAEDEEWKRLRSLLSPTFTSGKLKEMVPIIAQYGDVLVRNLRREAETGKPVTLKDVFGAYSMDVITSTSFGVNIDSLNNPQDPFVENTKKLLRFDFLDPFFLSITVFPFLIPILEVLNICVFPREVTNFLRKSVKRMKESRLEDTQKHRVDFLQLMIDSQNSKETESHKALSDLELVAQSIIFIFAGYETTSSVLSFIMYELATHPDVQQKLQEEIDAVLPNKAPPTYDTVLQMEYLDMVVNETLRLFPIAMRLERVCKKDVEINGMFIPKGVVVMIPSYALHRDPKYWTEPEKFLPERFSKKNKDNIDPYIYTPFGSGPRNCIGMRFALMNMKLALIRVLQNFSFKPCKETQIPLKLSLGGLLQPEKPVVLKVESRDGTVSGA

Cytochrome P450 3A4 [13] = target: T1, Cytochrome P450 3A4; test: Inhibition of CYP3A4 in human liver microsomes; format: ADME, Microsome; conditions: TDE = time-dependent effect

T1 sequence (P08684 whole entry): as above

Compound	Ratio IC50 [1]	IC50 (Cytochrome P450 3A4 [2])	Ratio IC50 [3]	Ratio IC50 [4]	IC50 [5]	IC50 [7]	other results
CC(C)(C(N)=O)N1CCN(Cc2cc3nc(-c4cc(F)cc5[nH]ccc45)nc(N4CCOCC4)c3s2)CC1	566	510 nM	80	77	0.48 nM		
CN(C)C1CCN(Cc2cc3nc(-n4cnc5ccccc54)nc(N4CCOCC4)c3s2)CC1				14	23 nM	970 nM	Ratio IC50 [6]: 42
Cc1cccc(-c2nc(N3CCOCC3)c3sc(CN4CCC(N(C)C)CC4)cc3n2)c1				98	12 nM	1300 nM	
CC(C)(C(N)=O)N1CCN(Cc2cc3nc(-c4nccc5[nH]ccc45)nc(N4CCOCC4)c3s2)CC1	2830	> 10000 nM	46	86	3.5 nM		
CC(C)(C(N)=O)N1CCN(Cc2cc3nc(-c4c(F)cc(F)c5[nH]ccc45)nc(N4CCOCC4)c3s2)CC1	350	600 nM	137	96	6 nM		
CN(C)C1CCN(Cc2cc3nc(-c4c[nH]c5ccccc45)nc(N4CCOCC4)c3s2)CC1				88	5.6 nM		
CN(C)C1CCN(Cc2cc3nc(-c4cccc5c4CC(=O)N5)nc(N4CCOCC4)c3s2)CC1				8	41 nM	3400 nM	
Cc1nc2ccccc2n1-c1nc(N2CCOCC2)c2sc(CN3CCN(C(C)(C)C(N)=O)CC3)cc2n1	134	> 10000 nM	111	17	4.3 nM		
CC(C)(C(N)=O)N1CCN(Cc2cc3nc(-c4cccc5[nH]ncc45)nc(N4CCOCC4)c3s2)CC1	153		54	9	3.1 nM		
CN(C)C1CCN(Cc2cc3nc(-c4n[nH]c5ccccc45)nc(N4CCOCC4)c3s2)CC1				65	9.8 nM		
CCc1nc2ccccc2n1-c1nc(N2CCOCC2)c2sc(CN3CCN(C4COC4)CC3(C)C)cc2n1	112	> 10000 nM	815	50	2.3 nM	102 nM	
CC(C)(C(N)=O)N1CCN(Cc2cc3nc(-c4cncc5[nH]ccc45)nc(N4CCOCC4)c3s2)CC1	243	3200 nM	40	41	0.67 nM		
CN(C)C1CCN(Cc2cc3nc(-n4ncc5ccccc54)nc(N4CCOCC4)c3s2)CC1				39	16 nM	3200 nM	
Cc1cc2c(-c3nc(N4CCOCC4)c4sc(CN5CCN(C(C)(C)C(N)=O)CC5)cc4n3)cccc2[nH]1	715	< 100 nM	101	122	1.1 nM		
CN(C)C1CCN(Cc2cc3nc(-c4c(F)ccc5[nH]ccc45)nc(N4CCOCC4)c3s2)CC1		9100 nM		226	1.8 nM	29 nM	Ratio IC50 [6]: 16
Cn1ccc2c(-c3nc(N4CCOCC4)c4sc(CN5CCN(C(C)(C)C(N)=O)CC5)cc4n3)cccc21	75	> 10000 nM	75	18	134 nM		
CC(C)(C(N)=O)N1CCN(Cc2cc3nc(-c4c(F)ccc5[nH]ccc45)nc(N4CCOCC4)c3s2)CC1	1880	1500 nM	102	194	3 nM		Stability (Liver microsomes [8]): 90.8%; Stability (Liver microsomes [9]): 82.5%; Vd [10]: 2.38 L/kg; clearance [11]: 31.3 mL/min/kg; bioavailability [12]: 75.2%; kinact at 30 min (CYP3A4): 0.00123 s⁻¹; Ki (Cytochrome P450 3A4 [2]): 6600 nM
CC(C)(C(N)=O)N1CCN(Cc2cc3nc(-c4ccnc5[nH]ccc45)nc(N4CCOCC4)c3s2)CC1	81	< 100 nM	103	30	2.3 nM		
Cc1ncc2ccccc2c1-c1nc(N2CCOCC2)c2sc(CN3CCC(N(C)C)CC3)cc2n1				144	29 nM	2000 nM	
CS(=O)(=O)N1CCN(Cc2cc3nc(-c4cccc5[nH]ccc45)nc(N4CCOCC4)c3s2)CC1	268		25	22	1.7 nM		inhibition (INH) (Cytochrome P450 3A4 [13]): tde
CC(C)(C(N)=O)N1CCN(Cc2cc3nc(-c4cccc5[nH]ccc45)nc(N4CCOCC4)c3s2)CC1	1440		104	129	1.8 nM		inhibition (INH) (Cytochrome P450 3A4 [13]): tde
CCc1nc2ccccc2n1-c1nc(N2CCOCC2)c2sc(CN3CCN(S(C)(=O)=O)CC3)cc2n1	14	> 10000 nM	12	2	4.3 nM	79 nM	
Cc1nc2ccccc2n1-c1nc(N2CCOCC2)c2sc(CN3CCC(N(C)C)CC3)cc2n1	233	> 10000 nM	252	29	2.7 nM	374 nM	
CC(C)(C(N)=O)N1CCN(Cc2cc3nc(-c4cc(C#N)cc5[nH]ccc45)nc(N4CCOCC4)c3s2)CC1	691	1200 nM	275	208	3.2 nM		
CN(C)C1CCN(Cc2cc3nc(-n4ccc5ccccc54)nc(N4CCOCC4)c3s2)CC1				54	10 nM	420 nM	
CN(C)C1CCN(Cc2cc3nc(-c4cccc5nccn45)nc(N4CCOCC4)c3s2)CC1				21	27 nM	180 nM	
CCc1nc2ccccc2n1-c1nc(N2CCOCC2)c2sc(CN3CCC(C(C)(C)O)CC3)cc2n1		> 10000 nM					
Fc1ccc2[nH]ccc2c1-c1nc(N2CCOCC2)c2sc(CN3CCN4CCOC[C@H]4C3)cc2n1	806	7000 nM	69	42	9 nM		Stability (Liver microsomes [8]): 72.5%; Stability (Liver microsomes [9]): 68.7%; Vd [10]: 2.76 L/kg; clearance [11]: 25.2 mL/min/kg; bioavailability [12]: 75.5%; kinact at 30 min (CYP3A4): 0.0008 s⁻¹; Ki (Cytochrome P450 3A4 [2]): 78000 nM
